Our source for the EC50 values is ChEMBL document CHEMBL1150913, “Novel cytotoxic cembranoids from the soft coral Sinularia flexibilis” (1998).

Common to all, as to type: functional
Assay [1] has as its system HT-29. As to the kind of experiment: Cytotoxicity against human HT-29 cells after 6 days by MTT assay. Particulars: HT-29, 144 h, read-out: ED50 (the source's name).
The subject of assay [2] is P388. The assay is described as follows: Cytotoxicity against mouse P388 cells after 3 days by MTT assay. Conditions: P388, 72 h, read-out: ED50 (the source's name).
The test system of assay [3] is KB. As to the kind of experiment: Cytotoxicity against human KB cells after 3 days by MTT assay. Conditions: 72 h, read-out: ED50 (the source's name).
Assay [4] concerns A549. As to the kind of experiment: Cytotoxicity against human A549 cells after 6 days by MTT assay. Conditions: A549, 144 h, read-out: ED50 (the source's name).

In brackets after ≈: the same amount, converted by molar mass.

With `C/C1=C\CC[C@@](C)(O)[C@H]2C[C@H](CC[C@](C)(O)[C@H](O)CC1)[C@@H](C)C(=O)O2` [DIHYDROSINUFLEXOLIDE], the EC50 in assay [1] is 32.4 µg/mL (≈ 91.4 µM); in assay [2], 3.86 µg/mL (≈ 10.9 µM); in assay [3], > 50 µg/mL; in assay [4], 16.8 µg/mL (≈ 47.4 µM).

`C=C1C(=O)O[C@@H]2C[C@@H]1CC[C@](C)(O)[C@H](O)CC/C(C)=C/CC[C@@]2(C)O` [SINUFLEXOLIDE]: the EC50 in assay [1] worked out at 0.39 µg/mL (≈ 1.11 µM); in assay [2], 0.16 µg/mL (≈ 0.454 µM); in assay [3], 0.46 µg/mL (≈ 1.31 µM); in assay [4], 0.68 µg/mL (≈ 1.93 µM).

Regarding `C=C(C(=O)OC)[C@H]1CC[C@](C)(O)[C@H](O)CC/C(C)=C/CC[C@@](C)(O)[C@@H](O)C1` [SINUFLEXIBILIN], the EC50 in assay [1] was determined as 0.22 µg/mL (≈ 0.572 µM); in assay [2], 0.27 µg/mL (≈ 0.702 µM); in assay [3], 1.73 µg/mL (≈ 4.5 µM); in assay [4], 0.72 µg/mL (≈ 1.87 µM).
